“Also recorded” adds a separate entry of the source.
Experiments:
[1] = system: MSSA (methicillin-sensitive Staphylococcus aureus); test: Disk diffusion test on Staphylococcus aureus (MSSA); format: cell-based
Source text: (§1) Applicants undertook two rounds of studies. […] When agar plating was required, both rounds of Applicants' studies were undertaken using similar disk diffusion methods on bacteria grown on agar substrates in Petri dishes. These methods conform to those prescribed by the Clinical & Laboratory Standards Institute (https://clsi.org). […]

Acinetobacter baumannii = test: Disk diffusion test on Acinetobacter baumannii; format: cell-based
Source text: as §1

[2] = system: complicated urinary tract infection, including acute pyelonephritis; test: Intravenous cefepime plus 5-Boronothiophene-2-carboxylic acid in patients with complicated urinary tract infection; format: in vivo, adult patients; conditions: cefepime 2.0 g + 5-Boronothiophene-2-carboxylic acid 0.5 g, intravenously over two hours every 8 hours, 7 days
Procedure: According to the disclosed invention, requisite amounts of both cefepime and 5-Boronothiophene-2-carboxylic acid are dissolved. Particularly, 2.0 g of cefepime are dissolved in sterile normal saline (0.9% sodium chloride) solution and 0.5 g of 5-Boronothiophene-2-carboxylic acid are dissolved in DMSO. Dissolution may be accelerated by use of an alcohol such as ethyl alcohol. Thereafter, a 2.5 g dose of a combination of cefepime (2.0 g) and 5-Boronothiophene-2-carboxylic acid (0.5 g) together with sterile normal saline (0.9% sodium chloride) as a diluent is administered to randomly assigned adult patients challenged with complicated urinary tract infection, including acute pyelonephritis, over a two-hour period with the dose being administered intravenously every 8 hours. A 1.0 g dose of a placebo is administered over 30-minute periods, every 8 hours also intravenously. The administration may be carried out over a period of 7 days.

[3] = system: methicillin-resistant coagulase-negative Staphylococcus sps. (MRCoNS); test: Disk diffusion test on MRCoNS; format: cell-based
Source text: (§2) Applicants undertook two rounds of studies. The results of the first round are illustrated in FIGS. 1A-9B and discussed in the related text. The results of the second round of studies are illustrated in FIGS. 10-23 and discussed in the related text. When agar plating was required, both rounds of Applicants' studies were undertaken using similar disk diffusion methods on bacteria grown on agar substrates in Petri dishes. These methods conform to those prescribed by the Clinical & Laboratory Standards Institute (https://clsi.org).
(§3) Disk Diffusion tests with beta-lactam antibiotics with and without the beta-lactamase inhibitor of FIG. 1A. Closely spaced disks disclose possible synergistic or inhibitory effects between the antibiotics and the compound of FIG. 1A (labeled in FIGS. 4A-9B as Compound C). The distances between disks show the effectiveness of the possible synergy. […] Each disk contains either the compound of FIG. 1A or an antibiotic (one of FIGS. 3A-3D), or the compound of […] and an antibiotic (one of FIGS. 3A-3D). When a disk with the compound of FIG. 1A is in proximity to a disk with an antibiotic both agents diffuse into the bacterial growth medium, allowing us to observe the area where both agents are present at the same time. These disk diffusion tests were evaluated with the following:
(§4) As noted above, Applicants' studies were undertaken using similar disk diffusion methods on bacteria grown on agar substrates in Petri dishes. These methods conform to those prescribed by the Clinical & Laboratory Standards Institute (https://clsi.org).

Pseudomonas aeruginosa = test: Disk diffusion test on Pseudomonas aeruginosa; format: cell-based; conditions: in combination with aztreonam
Source text: as §1

Klebsiella pneumoniae = test: Disk diffusion test on Klebsiella pneumoniae; format: cell-based
Source text: as §2, §3, §4

Escherichia coli = test: Disk diffusion test on Escherichia coli; format: cell-based
Source text: as §1

Citrobacter freundii = test: Disk diffusion test on Citrobacter freundii; format: cell-based
Source text: as §1

[4] = in combination with ceftazidime
[5] = in combination with ceftriaxone

## O=C(O)c1ccc(B(O)O)s1 [Compound C, 2-carboxythiophene-5-boronic acid]
[1]; in combination with ampicillin
  effectiveness of the combination with antibiotic: enhanced effectiveness
[1]; in combination with penicillin G
  effectiveness of the combination with antibiotic: enhanced effectiveness
Acinetobacter baumannii; [4]
  effectiveness of the combination with antibiotic: enhanced effectiveness
Acinetobacter baumannii; in combination with meropenem
  effectiveness of the combination with antibiotic: enhanced effectiveness
[2]
  microbiologic and clinical success: both microbiologic and clinical success
[3]; cefoxitin 30 μg + Compound C 15 μg
  effect on cefoxitin activity: does not enhance cefoxitin activity
[3]; cefoxitin 30 μg + Compound C 150 μg
  effect on cefoxitin activity: inhibits cefoxitin antibiotic activity
[3]; in combination with ampicillin
  effectiveness of the combination with antibiotic: enhanced effectiveness
[3]; in combination with penicillin G (second round)
  effectiveness of the combination with antibiotic: enhanced effectiveness
[3]; penicillin G 10 μg + Compound C 15 μg
  activation of the antibiotic action of penicillin G: strongly enables; also recorded: activates the antibiotic action of penicillin G
[3]; penicillin G 10 μg + Compound C 150 μg
  activation of the antibiotic action of penicillin G: further activate penicillin G
[3]; single agent disk, penicillin G 10 μg, cefoxitin 30 μg, Compound C 15 μg
  antibacterial activity of the agent by itself: no antibacterial activity
Pseudomonas aeruginosa
  effectiveness of the combination with antibiotic: enhanced effectiveness
Klebsiella pneumoniae; ceftazidime 30 μg + Compound C 15 μg
  enhancement of the action of ceftazidime: very strongly enhances; also recorded: strongly enhances
Klebsiella pneumoniae; in combination with ceftazidime (second round)
  effectiveness of the combination with antibiotic: enhanced effectiveness
Klebsiella pneumoniae; [5]
  effectiveness of the combination with antibiotic: enhanced effectiveness
Klebsiella pneumoniae; in combination with meropenem (second round)
  effectiveness of the combination with antibiotic: enhanced effectiveness
Klebsiella pneumoniae; meropenem 10 μg + Compound C 15 μg
  effect on the activity of meropenem: essentially no effect
Klebsiella pneumoniae; meropenem 10 μg + Compound C 150 μg
  effect on the activity of meropenem: only weakly enhances
Klebsiella pneumoniae; single agent disk, ceftazidime 30 μg, meropenem 10 μg, Compound C 15 μg
  antibacterial activity of the agent by itself: no activity on its own
Escherichia coli; in combination with amoxycillin
  effectiveness of the combination with antibiotic: enhanced effectiveness
Escherichia coli; [4]
  effectiveness of the combination with antibiotic: enhanced effectiveness
Escherichia coli; [5]
  effectiveness of the combination with antibiotic: enhanced effectiveness
Escherichia coli; in combination with meropenem
  effectiveness of the combination with antibiotic: enhanced effectiveness
Citrobacter freundii; [4]
  effectiveness of the combination with antibiotic: enhanced effectiveness
Citrobacter freundii; [5]
  effectiveness of the combination with antibiotic: enhanced effectiveness
Citrobacter freundii; in combination with meropenem
  effectiveness of the combination with antibiotic: enhanced effectiveness

— patent US20250332181A1, “ANTIBIOTIC METHODS AND COMPOSITIONS” (AI BIO DISCOVERY LLC, priority 2024, published 2025)
